Measurements: US20070224167A1, “Novel HCV inhibitor combinations and methods” (priority 2006, published 2007)
Entries after “also recorded” stand apart in the source; their conditions may differ.

Tested on: replicons containing HCV NS3 protease mutations T54A, A156S, A156T, V170A
Experiment: HCV-796 cross-resistance study, 3-day replicon assay on replicons with NS3 protease resistance mutations
Assay type: cell-based
Details: V170A vs wild type
Protocol: Replicon cells are seeded at ˜5000 cells/well in 96-well collagen I-coated Biocoat plates (Becton Dickinson). Twenty-four hrs post-seeding, inhibitors diluted in DMSO are added to replicon cells (Huh-7 cells). The final concentrations of DMSO and fetal bovine serum are 1% and 10%, respectively. SCH 503034 is serially diluted at 1:2 for a 10-point titration. To each concentration of the SCH 503034, the second inhibitor, HCV-796 or rhIFN-α2b control is titrated in. IFN-α is serially diluted at 1:3, whereas HCV RNA polymerase inhibitor, HCV-796, is serially diluted at 1:2. […] All samples are tested in triplicate. Media and inhibitors are refreshed daily for 3 days at which point the cells are washed with PBS and lysed in 1× cell lysis buffer (Ambion cat #8721). The replicon RNA level is measured using real time PCR (Taqman assay) The amplicon is located in 5B. The PCR primers are: 5B.2F, ATGGACAGGCGCCCTGA (SEQ ID NO:1) and 5B.2R, […] (SEQ ID NO:2). The probe sequence is FAM-labeled CACGCCATGCGCTGCGG (SEQ ID NO:3). GAPDH RNA is used as an endogenous control and is amplified in the same reaction as NS5B (multiplex PCR) using primers and VIC-labeled probe recommended by the manufacturer (PE Applied Biosystem). […]

CNC(=O)c1c(-c2ccc(F)cc2)oc2cc(N(CCO)S(C)(=O)=O)c(C3CC3)cc12 [HCV-796, 5-cyclopropyl-2-(4-fluoro-phenyl)-6-[(2-hydroxy-ethyl)-methanesulfonyl-amino]-benzofuran-3-carboxylic acid methylamide]
Activity of HCV-796 on SCH 503034 resistant replicon cell lines: identical to that observed against the wild-type replicon; also recorded: active
